Measurements reported in ChEMBL document CHEMBL1201862, “PubChem BioAssay data set” (2004).
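Values below derive from 48-hour exposures of cells grown in 96-well plates, with endpoints linearly interpolated between the two concentrations bracketing the appropriate inhibition level. GI50 marks 50% less growth.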 Calls of active or inactive are those of the source. No stated cut-off is given here; in the data, active = GI50 up to about 1.1 µM and inactive = higher.

Legend:
Assay in all cases: growth of human tumour cells (NCI), 48 h
[1] = test system: SK-MEL-2
[2] = test system: KM-20L2
[3] = test system: HOP-92
[4] = test system: HT-29
[5] = test system: COLO 205
[6] = test system: NCI-H226
[7] = test system: SF-268
[8] = test system: EKVX
[9] = test system: A549
[10] = test system: HCC 2998
[11] = test system: SW-620
[12] = test system: SF-295
[13] = test system: OVCAR-5
[14] = test system: MOLT-4
[15] = test system: OVCAR-3
[16] = test system: XF498
[17] = test system: Malme-3M
[18] = test system: ACHN
[19] = test system: CCRF-CEM
[20] = test system: TK-10
[21] = test system: M19-MEL
[22] = test system: DMS-273
[23] = test system: DLD-1
[24] = test system: LXFL 529
[25] = test system: HOP-62
[26] = test system: SK-MEL-28
[27] = test system: OVCAR-8
[28] = test system: UACC-62
[29] = test system: SNB-19
[30] = test system: UACC-257
[31] = test system: HCT-116
[32] = test system: SK-OV-3
[33] = test system: NCI-H23
[34] = test system: NCI-H460
[35] = test system: UO-31
[36] = test system: SF-539
[37] = test system: IGROV-1
[38] = test system: 786-0
[39] = test system: RXF 393
[40] = test system: SR
[41] = test system: SNB-75
[42] = test system: SN12C
[43] = test system: RPMI-8226
[44] = test system: LOX IMVI
[45] = test system: RXF 631
[46] = test system: HCT-15
[47] = test system: HOP-18
[48] = test system: HL-60
[49] = test system: U-251
[50] = test system: SK-MEL-5
[51] = test system: K562
[52] = test system: CAKI-1
[53] = test system: M14
[54] = test system: DMS-114
[55] = test system: OVCAR-4
[56] = test system: NCI-H522
[57] = test system: KM12

Cc1cc2c(C)nn(Cc3ccccc3Cl)c2c(C#N)c1C
GI50 [1]: > 100 µM (inactive) | GI50 [2]: > 100 µM (inactive) | GI50 [3]: > 100 µM (inactive) | GI50 [4]: > 100 µM (inactive) | GI50 [5]: > 100 µM (inactive) | GI50 [6]: > 100 µM (inactive) | GI50 [7]: > 100 µM (inactive) | GI50 [8]: > 100 µM (inactive) | GI50 [9]: > 100 µM (inactive) | GI50 [10]: > 100 µM (inactive) | GI50 [11]: > 100 µM (inactive) | GI50 [12]: > 100 µM (inactive) | GI50 [13]: > 100 µM (inactive) | GI50 [14]: > 100 µM (inactive) | GI50 [15]: > 100 µM (inactive) | GI50 [16]: > 100 µM (inactive) | GI50 [17]: > 100 µM (inactive) | GI50 [18]: > 100 µM (inactive) | GI50 [19]: > 100 µM (inactive) | GI50 [20]: > 100 µM (inactive) | GI50 [21]: > 100 µM (inactive) | GI50 [22]: > 100 µM (inactive) | GI50 [23]: > 100 µM (inactive) | GI50 [24]: > 100 µM (inactive) | GI50 [25]: > 100 µM (inactive) | GI50 [26]: > 100 µM (inactive) | GI50 [27]: > 100 µM (inactive) | GI50 [28]: > 100 µM (inactive) | GI50 [29]: > 100 µM (inactive) | GI50 [30]: > 100 µM (inactive) | GI50 [31]: > 100 µM (inactive) | GI50 [32]: > 100 µM (inactive) | GI50 [33]: > 100 µM (inactive) | GI50 [34]: > 100 µM (inactive) | GI50 [35]: > 100 µM (inactive) | GI50 [36]: > 100 µM (inactive) | GI50 [37]: > 100 µM (inactive) | GI50 [38]: > 100 µM (inactive) | GI50 [39]: > 100 µM (inactive) | GI50 [40]: > 100 µM (inactive) | GI50 [41]: > 100 µM (inactive) | GI50 [42]: > 100 µM (inactive) | GI50 [43]: > 100 µM (inactive) | GI50 [44]: > 100 µM (inactive) | GI50 [45]: > 100 µM (inactive) | GI50 [46]: > 100 µM | GI50 [47]: > 100 µM (inactive) | GI50 [48]: > 100 µM (inactive) | GI50 [49]: > 100 µM (inactive)

O=C(O)C1=CNC(C(=O)O)=NN1
GI50 [1]: > 100 µM (inactive) | GI50 [2]: > 100 µM (inactive) | GI50 [3]: > 100 µM (inactive) | GI50 [4]: > 100 µM (inactive) | GI50 [5]: > 100 µM (inactive) | GI50 [6]: > 100 µM (inactive) | GI50 [7]: > 100 µM (inactive) | GI50 [8]: > 100 µM (inactive) | GI50 [9]: > 100 µM (inactive) | GI50 [11]: > 100 µM (inactive) | GI50 [12]: > 100 µM (inactive) | GI50 [50]: > 100 µM (inactive) | GI50 [14]: > 100 µM (inactive) | GI50 [15]: > 100 µM (inactive) | GI50 [16]: > 100 µM (inactive) | GI50 [17]: > 100 µM (inactive) | GI50 [18]: > 100 µM (inactive) | GI50 [51]: > 100 µM (inactive) | GI50 [52]: > 100 µM (inactive) | GI50 [19]: > 100 µM (inactive) | GI50 [20]: > 100 µM (inactive) | GI50 [21]: > 100 µM (inactive) | GI50 [23]: > 100 µM (inactive) | GI50 [24]: > 100 µM (inactive) | GI50 [25]: > 100 µM (inactive) | GI50 [26]: > 100 µM (inactive) | GI50 [27]: > 100 µM (inactive) | GI50 [28]: > 100 µM (inactive) | GI50 [29]: > 100 µM (inactive) | GI50 [30]: > 100 µM (inactive) | GI50 [31]: > 100 µM (inactive) | GI50 [32]: > 100 µM (inactive) | GI50 [33]: > 100 µM (inactive) | GI50 [34]: > 100 µM (inactive) | GI50 [53]: > 100 µM (inactive) | GI50 [35]: > 100 µM (inactive) | GI50 [54]: > 100 µM (inactive) | GI50 [36]: > 100 µM (inactive) | GI50 [37]: > 100 µM (inactive) | GI50 [55]: > 100 µM (inactive) | GI50 [38]: > 100 µM (inactive) | GI50 [56]: > 100 µM (inactive) | GI50 [39]: > 100 µM (inactive) | GI50 [40]: > 100 µM (inactive) | GI50 [41]: > 100 µM (inactive) | GI50 [42]: > 100 µM (inactive) | GI50 [43]: > 100 µM (inactive) | GI50 [45]: > 100 µM (inactive) | GI50 [46]: > 100 µM | GI50 [47]: > 100 µM (inactive) | GI50 [57]: > 100 µM (inactive) | GI50 [48]: > 100 µM (inactive) | GI50 [49]: > 100 µM (inactive)
